From PubChem BioAssay AID248 (DTP/NCI, 2004)
Values joined by “and” are separate entries in the source; they are usually repeats but may differ in a detail not shown here. Equal entries are not always repeated. Toxic doses and inconclusive results are not listed. Rule as the data show it: active = T/C of 150% or more; inactive = T/C below 125%.

System: L1210 leukemia ip in BDF1 mice, survival T/C
Experiment: NCI In Vivo Anticancer Drug Screen. Data for tumor model L1210 Leukemia (intraperitoneal) in B6D2F1 (BDF1) mice
Conditions: endpoint: mean survival time, higher = longer survival
How it was run: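 Antitumor effect is assessed in tumor-bearing animals. Survival in the compound arm is compared with a vehicle-dosed control arm and expressed as their quotient.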

[1] = dose: 12.5 mg/kg/injection, schedule: Q01DX009 (ip), vehicle: Klucel (hydroxypropylcellulose) (HPC)
[2] = dose: 25.0 mg/kg/injection, schedule: Q01DX009 (ip), vehicle: Klucel (hydroxypropylcellulose) (HPC)
[3] = dose: 100.0 mg/kg/injection, schedule: Q01DX009 (ip), vehicle: Klucel (hydroxypropylcellulose) (HPC)
[4] = dose: 100.0 mg/kg/injection, schedule: Q04DX002 (ip), vehicle: Klucel (hydroxypropylcellulose) (HPC)
[5] = dose: 200.0 mg/kg/injection, schedule: Q04DX002 (ip), vehicle: Klucel (hydroxypropylcellulose) (HPC)
[6] = dose: 400.0 mg/kg/injection, schedule: Q04DX002 (ip), vehicle: Klucel (hydroxypropylcellulose) (HPC)
[7] = dose: 100.0 mg/kg/injection, schedule: Q01DX001 (ip), vehicle: saline
[8] = dose: 200.0 mg/kg/injection, schedule: Q01DX001 (ip), vehicle: saline
[9] = dose: 400.0 mg/kg/injection, schedule: Q01DX001 (ip), vehicle: saline
[10] = dose: 100.0 mg/kg/injection, schedule: Q04DX003 (ip), vehicle: saline
[11] = dose: 100.0 mg/kg/injection, schedule: Q04DX002 (ip), vehicle: saline with Tween-80
[12] = dose: 200.0 mg/kg/injection, schedule: Q04DX002 (ip), vehicle: saline with Tween-80
[13] = dose: 400.0 mg/kg/injection, schedule: Q04DX002 (ip), vehicle: saline with Tween-80
[14] = dose: 50.0 mg/kg/injection, schedule: Q01DX009 (ip), vehicle: Klucel (hydroxypropylcellulose) (HPC)
[15] = dose: 100.0 mg/kg/injection, schedule: Q04DX003 (ip), vehicle: Klucel (hydroxypropylcellulose) (HPC)
[16] = dose: 200.0 mg/kg/injection, schedule: Q04DX003 (ip), vehicle: Klucel (hydroxypropylcellulose) (HPC)
[17] = dose: 400.0 mg/kg/injection, schedule: Q04DX003 (ip), vehicle: Klucel (hydroxypropylcellulose) (HPC)
[18] = dose: 100.0 mg/kg/injection, schedule: Q01DX009 (ip), vehicle: saline with Tween-80
[19] = dose: 200.0 mg/kg/injection, schedule: Q01DX009 (ip), vehicle: saline with Tween-80
[20] = dose: 400.0 mg/kg/injection, schedule: Q01DX009 (ip), vehicle: saline with Tween-80
[21] = dose: 100.0 mg/kg/injection, schedule: Q04DX003 (ip), vehicle: saline with Tween-80
[22] = dose: 200.0 mg/kg/injection, schedule: Q04DX003 (ip), vehicle: saline with Tween-80
[23] = dose: 400.0 mg/kg/injection, schedule: Q04DX003 (ip), vehicle: saline with Tween-80

Measured: T/C

CC(C)CCCC(C)C1CCC2C3CCC4CC(=O)CCC4(C)C3CCC12C (stereo not given)
inactive: [1] 104 % of control | [2] 107 % of control and 90 % of control | [3] 90 % of control | [4] 87 % of control | [5] 93 % of control | [6] 107 % of control

[O-][P+](=NC12CC3CC(CC(C3)C1)C2)c1ccccc1 (stereo not given)
inactive: dose: 75.0 mg/kg/injection, schedule: Q04DX003 (ip), vehicle: Klucel (hydroxypropylcellulose) (HPC) 99 % of control | dose: 150.0 mg/kg/injection, schedule: Q04DX003 (ip), vehicle: Klucel (hydroxypropylcellulose) (HPC) 101 % of control | dose: 300.0 mg/kg/injection, schedule: Q04DX003 (ip), vehicle: Klucel (hydroxypropylcellulose) (HPC) 100 % of control

Cc1ccc2c(ccc3c[n+]4ccccc4c(C)c32)c1
inactive: dose: 12.5 mg/kg/injection, schedule: Q01DX001 (ip), vehicle: carboxymethylcellulose (CMC) 107 % of control | dose: 25.0 mg/kg/injection, schedule: Q01DX001 (ip), vehicle: carboxymethylcellulose (CMC) 96 % of control

CC1=C(C)C(C)(Cl)C1(C)Cl (stereo not given)
inactive: dose: 75.0 mg/kg/injection, schedule: Q01DX001 (ip), vehicle: acetone 108 % of control | dose: 150.0 mg/kg/injection, schedule: Q01DX001 (ip), vehicle: acetone 95 % of control

Cn1c(CC(O)(C(F)(F)F)C(F)(F)F)c(C(O)(C(F)(F)F)C(F)(F)F)c2ccccc21
inactive: dose: 5.0 mg/kg/injection, schedule: Q01DX009 (ip), vehicle: saline with Tween-80 100 % of control | dose: 10.0 mg/kg/injection, schedule: Q01DX009 (ip), vehicle: saline with Tween-80 94 % of control

O=C(Nc1ccc(/C=C/c2ccc(NC(=O)Nc3cccc(C4=NCCN4)c3)cc2)cc1)Nc1cccc(C2=NCCN2)c1
inactive: dose: 3.75 mg/kg/injection, schedule: Q01DX Z (ip), vehicle: carboxymethylcellulose (CMC) 93 % of control | dose: 7.5 mg/kg/injection, schedule: Q01DX Z (ip), vehicle: carboxymethylcellulose (CMC) 98 % of control | dose: 15.0 mg/kg/injection, schedule: Q01DX Z (ip), vehicle: carboxymethylcellulose (CMC) 96 % of control | dose: 50.0 mg/kg/injection, schedule: Q01DX Z (ip), vehicle: carboxymethylcellulose (CMC) 103 % of control | dose: 100.0 mg/kg/injection, schedule: Q01DX Z (ip), vehicle: carboxymethylcellulose (CMC) 102 % of control | dose: 200.0 mg/kg/injection, schedule: Q01DX Z (ip), vehicle: carboxymethylcellulose (CMC) 97 % of control

Cc1nn[nH]n1
inactive: [7] 119 % of control | [8] 105 % of control | [9] 105 % of control

N#CC1C2CCC(C2)C1CCCN (stereo not given)
inactive: dose: 25.0 mg/kg/injection, schedule: Q01DX009 (ip), vehicle: saline 108 % of control | dose: 25.0 mg/kg/injection, schedule: Q04DX003 (ip), vehicle: saline 102 % of control | dose: 50.0 mg/kg/injection, schedule: Q01DX009 (ip), vehicle: saline 106 % of control | dose: 50.0 mg/kg/injection, schedule: Q04DX003 (ip), vehicle: saline 95 % of control | dose: 100.0 mg/kg/injection, schedule: Q01DX009 (ip), vehicle: saline 98 % of control | [10] 95 % of control and 115 % of control

C/C(=N\N(C)C)C(=O)OC(C)(C)C
inactive: [10] 107 % of control | dose: 200.0 mg/kg/injection, schedule: Q04DX003 (ip), vehicle: saline 98 % of control | dose: 400.0 mg/kg/injection, schedule: Q04DX003 (ip), vehicle: saline 96 % of control

N#CSCCOCCSC#N
inactive: dose: 5.0 mg/kg/injection, schedule: Q01DX001 (ip), vehicle: saline 108 % of control | dose: 10.0 mg/kg/injection, schedule: Q01DX001 (ip), vehicle: saline 96 % of control

O=S(=O)(c1ccc(N=NN2CCOCC2)cc1)N(CCCl)CCCl
inactive: [11] 108 % of control | [12] 115 % of control | [13] 115 % of control

CCCCCCCCCCCCN=C(N)N/C(N)=N/S(=O)(=O)c1ccc(OCCCCC)cc1
inactive: [4] 100 % of control | [5] 95 % of control | [6] 95 % of control

Cc1ccc(C(C)(C)C)c(OCC2=NCCN2)c1
inactive: dose: 10.0 mg/kg/injection, schedule: Q04DX003 (ip), vehicle: Klucel (hydroxypropylcellulose) (HPC) 96 % of control | [1] 86 % of control | dose: 20.0 mg/kg/injection, schedule: Q04DX003 (ip), vehicle: Klucel (hydroxypropylcellulose) (HPC) 90 % of control | [2] 96 % of control | dose: 40.0 mg/kg/injection, schedule: Q04DX003 (ip), vehicle: Klucel (hydroxypropylcellulose) (HPC) 96 % of control | [14] 104 % of control

S=C(c1cccs1)N1CCN(c2ccccc2)CC1
inactive: [7] 97 % of control | [8] 95 % of control | [9] 97 % of control

Cc1cccc(C2NC(=O)c3ccccc3N2)c1 (stereo not given)
inactive: [15] 91 % of control | [16] 112 % of control | [17] 91 % of control

CCCCOc1ccc(OC(=O)Nc2cccc(C(F)(F)F)c2)cc1
inactive: [18] 96 % of control | [19] 94 % of control | [20] 94 % of control

N#Cc1ccccc1CC(O)(c1ccccc1)c1ccccc1
inactive: dose: 50.0 mg/kg/injection, schedule: Q01DX001 (ip), vehicle: saline 96 % of control | [7] 102 % of control | [8] 93 % of control | [9] 91 % of control

NC(=O)NC(Cc1ccccc1)(C(=O)O)c1ccccc1 (stereo not given)
inactive: [15] 103 % of control | [16] 98 % of control | [17] 103 % of control

O=C(O)C1(C(=O)O)CC(c2ccccc2)C1
inactive: dose: 75.0 mg/kg/injection, schedule: Q04DX003 (ip), vehicle: saline with Tween-80 101 % of control | dose: 150.0 mg/kg/injection, schedule: Q01DX009 (ip), vehicle: saline with Tween-80 91 % of control | dose: 150.0 mg/kg/injection, schedule: Q04DX003 (ip), vehicle: saline with Tween-80 95 % of control | dose: 300.0 mg/kg/injection, schedule: Q01DX009 (ip), vehicle: saline with Tween-80 91 % of control | dose: 300.0 mg/kg/injection, schedule: Q04DX003 (ip), vehicle: saline with Tween-80 101 % of control

CSc1ccc(NC(=O)c2ccc(Cl)cc2)cc1
inactive: [11] 100 % of control | [12] 100 % of control | [13] 92 % of control

CC(O)C(=O)COP(=O)(O)O (stereo not given)
inactive: [7] 96 % of control | [8] 102 % of control | [9] 96 % of control

CC(=O)Nc1ccc(S(=O)(=O)OCCC#N)cc1
inactive: [21] 99 % of control | [22] 99 % of control | [23] 90 % of control

CC(C#N)NC(=O)NC(C)C(N)=O (stereo not given)
inactive: [7] 107 % of control | [8] 107 % of control | [9] 97 % of control

CC(=O)Nn1cnc2ccccc2c1=O
inactive: [14] 98 % of control | [3] 98 % of control | dose: 200.0 mg/kg/injection, schedule: Q01DX009 (ip), vehicle: Klucel (hydroxypropylcellulose) (HPC) 98 % of control

COc1ccccc1NC(=O)Nc1ccc(S(N)(=O)=O)cc1
inactive: dose: 100.0 mg/kg/injection, schedule: Q01DX001 (ip), vehicle: saline with Tween-80 97 % of control | [18] 101 % of control and 106 % of control | [11] 98 % of control and 103 % of control | [21] 94 % of control | dose: 200.0 mg/kg/injection, schedule: Q01DX001 (ip), vehicle: saline with Tween-80 111 % of control | [19] 98 % of control and 116 % of control | [12] 104 % of control | [22] 90 % of control | dose: 400.0 mg/kg/injection, schedule: Q01DX001 (ip), vehicle: saline with Tween-80 97 % of control | [20] 97 % of control and 98 % of control | [13] 95 % of control | [23] 100 % of control
